Measurements as given in the supplement of paper PMC10307832.

Columns and labels:
Assay in all cases: relative viability (nuclei count vs DMSO), 5 days (fraction); higher = more cells survive
201T = tested on: 201T
Procedure, shortened: (§1)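 Lung cancer cell lines were pin-tool dosed in 1536-well plates on the day after seeding, with either a lone drug or a fixed anchor-drug dose plus five library-drug doses (not always all listed) in √10 steps. Nuclei were counted on 4× images after 5 days. Relative viability is the ratio of treated-well to vehicle-well nuclei counts, with each value a median of duplicate plates.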

COR-L 105 = tested on: COR-L 105
Procedure, shortened: as §1

ChaGo-K-1 = tested on: ChaGo-K-1
Procedure, shortened: as §1

EPLC-272H = tested on: EPLC-272H
Procedure, shortened: as §1

H3255 = tested on: H3255
Procedure, shortened: as §1

HCC-78 = tested on: HCC-78
Procedure, shortened: as §1

HCC-827 = tested on: HCC-827
Procedure, shortened: as §1

LC-2-ad = tested on: LC-2-ad
Procedure, shortened: as §1

LCLC-97TM1 = tested on: LCLC-97TM1
Procedure, shortened: as §1

NCI-H1666 = tested on: NCI-H1666
Procedure, shortened: as §1

NCI-H1915 = tested on: NCI-H1915
Procedure, shortened: as §1

NCI-H2087 = tested on: NCI-H2087
Procedure, shortened: as §1

## NC(=O)Nc1cc(-c2cccc(F)c2)sc1C(=O)N[C@H]1CCCNC1 [AZD7762] + O=C(CCCCCCC(=O)Nc1ccccc1)NO [Vorinostat] (partner 1 µM)
201T; first compound 0.01 µM
  relative viability: 0.996
201T; first compound 0.03162 µM
  relative viability: 1.03
201T; first compound 0.1 µM
  relative viability: 1.03
201T; first compound 0.3162 µM
  relative viability: 1.08
201T; first compound 1 µM
  relative viability: 1.01
COR-L 105; first compound 0.01 µM
  relative viability: 0.989
COR-L 105; first compound 0.03162 µM
  relative viability: 0.823
COR-L 105; first compound 0.1 µM
  relative viability: 0.808
COR-L 105; first compound 0.3162 µM
  relative viability: 0.609
COR-L 105; first compound 1 µM
  relative viability: 0.444
ChaGo-K-1; first compound 0.01 µM
  relative viability: 0.744
ChaGo-K-1; first compound 0.03162 µM
  relative viability: 0.743
ChaGo-K-1; first compound 0.1 µM
  relative viability: 0.739
ChaGo-K-1; first compound 0.3162 µM
  relative viability: 0.785
ChaGo-K-1; first compound 1 µM
  relative viability: 0.793
EPLC-272H; first compound 0.01 µM
  relative viability: 0.705
EPLC-272H; first compound 0.03162 µM
  relative viability: 0.543
EPLC-272H; first compound 0.1 µM
  relative viability: 0.383
EPLC-272H; first compound 0.3162 µM
  relative viability: 0.107
EPLC-272H; first compound 1 µM
  relative viability: 0.0642
H3255; first compound 0.01 µM
  relative viability: 0.944
H3255; first compound 0.03162 µM
  relative viability: 0.831
H3255; first compound 0.1 µM
  relative viability: 0.809
H3255; first compound 0.3162 µM
  relative viability: 0.722
H3255; first compound 1 µM
  relative viability: 0.684
HCC-78; first compound 0.01 µM
  relative viability: 0.496
HCC-78; first compound 0.03162 µM
  relative viability: 0.469
HCC-78; first compound 0.1 µM
  relative viability: 0.498
HCC-78; first compound 0.3162 µM
  relative viability: 0.425
HCC-78; first compound 1 µM
  relative viability: 0.349
HCC-827; first compound 0.01 µM
  relative viability: 0.984
HCC-827; first compound 0.03162 µM
  relative viability: 0.947
HCC-827; first compound 0.1 µM
  relative viability: 0.846
HCC-827; first compound 0.3162 µM
  relative viability: 0.753
HCC-827; first compound 1 µM
  relative viability: 0.618
LC-2-ad; first compound 0.01 µM
  relative viability: 0.724
LC-2-ad; first compound 0.03162 µM
  relative viability: 0.755
LC-2-ad; first compound 0.1 µM
  relative viability: 0.749
LC-2-ad; first compound 0.3162 µM
  relative viability: 0.647
LC-2-ad; first compound 1 µM
  relative viability: 0.448
LCLC-97TM1; first compound 0.01 µM
  relative viability: 0.799
LCLC-97TM1; first compound 0.03162 µM
  relative viability: 0.725
LCLC-97TM1; first compound 0.1 µM
  relative viability: 0.648
LCLC-97TM1; first compound 0.3162 µM
  relative viability: 0.636
LCLC-97TM1; first compound 1 µM
  relative viability: 0.356
NCI-H1666; first compound 0.01 µM
  relative viability: 1.16
NCI-H1666; first compound 0.03162 µM
  relative viability: 1.17
NCI-H1666; first compound 0.1 µM
  relative viability: 1.22
NCI-H1666; first compound 0.3162 µM
  relative viability: 1.21
NCI-H1666; first compound 1 µM
  relative viability: 1.07
NCI-H1915; first compound 0.01 µM
  relative viability: 0.567
NCI-H1915; first compound 0.03162 µM
  relative viability: 0.526
NCI-H1915; first compound 0.1 µM
  relative viability: 0.462
NCI-H1915; first compound 0.3162 µM
  relative viability: 0.474
NCI-H1915; first compound 1 µM
  relative viability: 0.373
NCI-H2087; first compound 0.01 µM
  relative viability: 0.891
NCI-H2087; first compound 0.03162 µM
  relative viability: 0.874
